Experimental data taken from PMC3377608, “The IkappaB Kinase Family Phosphorylates the Parkinson’s Disease Kinase LRRK2 at Ser935 and Ser910 during Toll-Like Receptor Signaling” (PLoS ONE, 2012).

Target: T1, TAK1 (Homo sapiens, UniProt O43318)
T1 construct: gene MAP3K7
T1 sequence (O43318 1-303): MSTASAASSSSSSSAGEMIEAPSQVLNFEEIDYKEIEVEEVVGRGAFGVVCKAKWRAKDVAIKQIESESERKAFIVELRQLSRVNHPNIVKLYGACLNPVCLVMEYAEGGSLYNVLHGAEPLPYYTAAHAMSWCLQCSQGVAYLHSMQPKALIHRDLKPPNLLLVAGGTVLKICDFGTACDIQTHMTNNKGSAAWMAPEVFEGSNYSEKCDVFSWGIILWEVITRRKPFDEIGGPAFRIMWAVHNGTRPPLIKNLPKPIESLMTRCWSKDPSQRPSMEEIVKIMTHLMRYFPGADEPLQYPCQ
T1 sequence (Q15750 437-504 partner): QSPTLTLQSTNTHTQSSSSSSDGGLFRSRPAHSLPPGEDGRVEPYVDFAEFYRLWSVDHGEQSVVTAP
Test: in vitro kinase inhibition (IC50); selectivity profiled by KiNativ, Ambit and radioactive filter binding panels
Format: biochemical

IC50: 4 nM
Compound: CCN1CCN(Cc2ccc(NC(=O)c3ccc(C)c(Oc4ccnc5[nH]ccc45)c3)cc2C(F)(F)F)CC1 [NG25]
